From US20090136566A1, “THERAPEUTIC TRITERPENOIDS” (Regents of the University of Minnesota, priority 2006, published 2009) come the findings set out here.

Data set [1] can be described thus: Light absorption analysis by UV-VIS spectrophotometer. Type of data set: physicochemical. Conditions: for Light absorption range (λ, nm): UV-VIS spectrophotometer. An excerpt:
Sunscreens block the cutaneous absorption of UV radiation at 280-315 nm.

Another data set has as its system P19 stem cells. Put plainly: Sulforhodamine B cell proliferation/survival assay, P19 stem cells. To be noted: for % Control (quantity of surviving cells as percentage of DMSO-only control): P19 stem cells, 20 μg/ml, 48 h exposure; for inhibition of P19 cell growth (in words): single dose of 20 μg/ml, 48 hours. In kind it is cell-based, mouse. The procedure:
FIG. 2 is a graph showing the results of dose-response studies comparing the effectiveness of extracts from four species of birch (B. papyrifera, B. kenaica, B. neoalaskana, and B. pendula) with betulinic acid (BetA) and betulin 3-caffeate (Bet3C). Concentrations of from 2.5 to 20 μg/ml were added to cultures of P19 stem cells for 48 h, and the numbers of surviving cells measured using sulforhodamine B assays.
(§1) Cell Proliferation Measurements: Sulforhodamine B assays (Skehan, P. et al. (1990). J. Natl. Cancer Inst. 82:1107-1112.) were conducted to measure the effects of compounds and extractives of interest on the proliferation of a number of different cell lines. Cell lines used include mouse P19 and human NT2-D1 stem cells, mouse K1735-M2 melanoma cells, human LNCaP and PC-3 prostate cancer cells, and human MCF-7 breast cancer cells. Other cell lines include normal human fibroblast BJ cells, human Caov-3 ovarian cancer cells, human U87 brain glioma cells, human HL-60 acute promyelocytic leukemia cells, human MOLT-4 acute lymphoblastic leukemia cells, human U937 histiocytic lymphoma cells, human MDA-MB-231 breast cancer cells, C2BBe1 cells (a clone of the human colorectal cell line Caco-2), human K562 chronic myeloid leukemia cells, human WM32-11 primary melanoma cells with radial growth phase-like phenotype (early primary melanoma), and human WM793 melanoma cells with vertical growth phase-like phenotype. Cells were seeded at a concentration of 2.5×10^4 cells/ml in 24-well plates, and allowed to recover for 2 days prior to drug addition. Test compounds were prepared in most instances as stock solutions in dimethylsulfoxide (DMSO). Compounds were then added to multiwell plates at final concentrations of […]. Control wells received an equivalent amount of vehicle (DMSO) only. After 1-3 days of incubation, the culture medium was decanted from each plate, and the cells fixed with cold (−10° C.) absolute methanol containing 1% acetic acid for at least 30 minutes. Subsequently, the methanol was decanted, and the plate air-dried. Sulforhodamine B (0.5% in 1% acetic acid) was added to each well, and the plate incubated at 35° C. for 1 hour. Plates were rinsed with 1% acetic acid, air-dried, and the bound dye eluted with 1 ml of 10 mM Tris buffer, pH 10. The absorbance was measured in a spectrophotometer at 540 nm; the amount of dye released is proportional to the number of cells present in the dish, and is a reliable indicator of cell proliferation.
A single dose of 20 μg/ml of either extract, pure compound, or a mixture of compounds, was added to cultures of P19 stem cells, and the growth of the cells measured after 48 hours of treatment (FIG. 1).
(§2) Stock solutions of compounds and extracts were diluted to 2 mg/ml in dimethylsulfoxide (DMSO), and subsequently added to samples at a final concentration of 20 μg/ml (10 μl/ml of a 2 mg/ml stock solution); controls received an equivalent amount of DMSO only (10 μl/ml). After 48 h, samples were fixed with methanol-acetic acid, and the quantity of surviving cells determined by sulforhodamine B staining methods (discussed above). The quantity of surviving cells is expressed as a percentage of the control (DMSO-only) cultures, which was set to 100%. […] Extracts and betulinic acid induce a relatively modest increase in the numbers of dead cells present the cultures (about 10-40%).

In data set [2] the test system is MCF-7 breast cancer cells. Put plainly: Sulforhodamine B cell proliferation assay, MCF-7 breast cancer cells. To be noted: 2.5-10 mg/ml, 48 h. Type of data set: cell-based, human. As to the method:
(§3) FIG. 3 is a bar graph showing a comparison of the effects of betulin 3-caffeate on other types of malignant cancer cell lines. P19 stem cells, K1735-M2 melanoma cells and MCF-7 breast cancer cells were treated with […] betulinic acid or betulin-3-caffeate for 48 h and cell quantity determined by sulforhodamine B assays.
as §1, with “After 1-3 days of incubation, the culture medium was decanted from each plate, and the cells fixed with cold (−10° C.) absolute methanol containing 1% acetic acid for at least 30 minutes. Subsequently, the methanol was decanted, and the plate air-dried. Sulforhodamine B (0.5% in 1% acetic acid) was added to each well, and the plate incubated at 35° C. for 1 hour. Plates were rinsed with 1% acetic acid, air-dried, and the bound dye eluted with 1 ml of 10 mM Tris buffer, pH 10.” left out

The next data set concerns K1735-M2 melanoma cells. Put plainly: Sulforhodamine B cell proliferation assay, K1735-M2 melanoma cells. Type of data set: cell-based, mouse. Conditions: 2.5-10 mg/ml, 48 h. The procedure:
as §3
as §1, with “After 1-3 days of incubation, the culture medium was decanted from each plate, and the cells fixed with cold (−10° C.) absolute methanol containing 1% acetic acid for at least 30 minutes. Subsequently, the methanol was decanted, and the plate air-dried. Sulforhodamine B (0.5% in 1% acetic acid) was added to each well, and the plate incubated at 35° C. for 1 hour. Plates were rinsed with 1% acetic acid, air-dried, and the bound dye eluted with 1 ml of 10 mM Tris buffer, pH 10.” left out

For another data set, the system named is P19 cells. The data set is described as follows: P19 cell death by propidium iodide labeling with flow cytometry. In kind it is cell-based, mouse. Conditions: 48 hours.
Description: FIG. 4 is a bar graph showing measurements of P19 cell death induced by extracts, betulinic acid (BetA) and betulin 3-caffeate (Bet3C). Because the reduction in cell numbers detected by sulforhodamine B assays could result from either an inhibition of cell proliferation or an induction of cell death (or a combination of both), propidium iodide labeling was used in conjunction with flow cytometry to detect dead and dying cells with compromised plasma membranes.
as §2
On the technique in general: Flow cytometry measures light scatter and fluorescence of single cells or particles in a stream.

“Also recorded” adds a separate entry of the source.

As for `C=C(C)[C@@H]1CC[C@]2(CO)CC[C@]3(C)[C@H](CC[C@@H]4[C@@]5(C)CC[C@H](OC(=O)/C=C/c6ccc(O)c(O)c6)C(C)(C)[C@@H]5CC[C@]43C)[C@@H]12` [betulin-3-caffeate, (3β)-3-Caffeyloxylup-20(29)-en-28-ol], in data set [1], the “Light absorption range (λ, nm)” value is listed as 210-360 nm. The “ε (molar extinction coefficient)” value in data set [1] (at λmax 220) turned out to be 2280; in data set [1] (at λmax 245) it was 1795; in data set [1] (at λmax 305) it was 2575; in data set [1] (at λmax 325), 2865. The “inhibition of P19 stem cell growth in dose response studies (in words)” value with P19 stem cells (2.5 to 20 μg/ml, 48 h) is recorded as “more effectively inhibits P19 stem cell growth”. Further, the “% Control (quantity of surviving cells as percentage of DMSO-only control)” value in the data set on P19 stem cells is reported as 1.2%. In the data set with P19 stem cells (concentrations of 5-10 μg/ml, 48 h), the “potency in inhibiting growth of P19 cells relative to betulinic acid” value lay in the range of 4 to 5 fold. The “inhibition of P19 cell growth (in words)” value in the data set with P19 stem cells was “even more profoundly inhibited cell growth”; in the data set on P19 stem cells (listed as betulin 3-caffeate), “among the most active compounds in inhibiting cell proliferation”. In data set [2], the “inhibition of MCF-7 breast cancer cell growth (in words)” value is “do not appear to be as sensitive”. The “effectiveness in inhibiting cell growth compared with betulinic acid (in words)” value (in data set [2] (MCF-7 cells); in the data set on K1735-M2 melanoma cells (K1735-M2 melanoma cells)) was “more effective in inhibiting cell growth than betulinic acid” throughout. Besides, in the data set on K1735-M2 melanoma cells, the “inhibition of M2 melanoma cell growth (in words)” value was “significantly inhibited”. In addition, in the data set with P19 cells, the “increase in the quantity of dead cells present in the cultures” value is on record as around 200%.
As to `O=C(O)CCCCCCCCCCCCCCCCCCCCC(=O)O` [Sample 9, Docosandioic acid], in the data set on P19 stem cells, the “% Control (quantity of surviving cells as percentage of DMSO-only control)” value amounted to 61.5%.
The same measure, in the same setting: under `O=C(O)CCCCCCC/C=C\CCCCCCCCO` [Sample 13, Cis-18-hydroxyoctadec-9-enoic acid] stands 65.9%.
Turning to `C=C(C)[C@@H]1CC[C@]2(COC(=O)/C=C/c3ccc(O)c(O)c3)CC[C@]3(C)[C@H](CC[C@@H]4[C@@]5(C)CC[C@H](O)C(C)(C)[C@@H]5CC[C@]43C)[C@@H]12` [betulin-28-caffeate], the “Light absorption range (λ, nm)” value in data set [1] was 210-360 nm. Besides, the “ε (molar extinction coefficient)” value in data set [1] (at λmax 220) is 1300; in data set [1] (at λmax 245) it was 875; in data set [1] (at λmax 305), 1190; in data set [1] (at λmax 325), 1380.
As to Hydroxyoctadecanoic acid [Sample 10], the “% Control (quantity of surviving cells as percentage of DMSO-only control)” value in the data set with P19 stem cells was 82.6%.
As to `C=C(C)[C@@H]1CC[C@]2(C(=O)O)CC[C@]3(C)C(CC[C@@H]4[C@@]5(C)CC[C@H](O)C(C)(C)C5CC[C@]43C)C12` (stereo partly drawn) [Sample 14, 3(β)-hydroxy-20(29)-lupaene-28-oic acid, reference compound], the “% Control (quantity of surviving cells as percentage of DMSO-only control)” value in the data set with P19 stem cells is given as 1.3%. Moreover, the “inhibition of P19 cell growth (in words)” value in the data set with P19 stem cells (listed as betulinic acid) is listed as “even more profoundly inhibited cell growth; also recorded: among the most active compounds in inhibiting cell proliferation”. Also, in data set [2], the “inhibition of MCF-7 breast cancer cell growth (in words)” value was “do not appear to be as sensitive”. Moreover, the “inhibition of M2 melanoma cell growth (in words)” value with K1735-M2 melanoma cells is given as “significantly inhibited”. The “increase in the quantity of dead cells present in the cultures” value in the data set with P19 cells is on record as 10-40%.
`C=C(C)[C@@H]1CC[C@]2(COC(=O)/C=C/c3ccc(O)c(O)c3)CC[C@]3(C)[C@H](CC[C@@H]4[C@@]5(C)CC[C@H](OC(=O)/C=C/c6ccc(O)c(O)c6)C(C)(C)[C@@H]5CC[C@]43C)[C@@H]12` [betulin-3,28-dicaffeate]: the “Light absorption range (λ, nm)” value in data set [1] is recorded as 200-350 nm. Also, the “ε (molar extinction coefficient)” value in data set [1] (at λmax 220) is reported as 13978; in data set [1] (at λmax 245) it was 10018; in data set [1] (at λmax 305) it was 13341; in data set [1] (at λmax 325), 15375.
Take “Treo-hydroxyoctadecanoic acid [Sample 11]”: in the data set with P19 stem cells, the “% Control (quantity of surviving cells as percentage of DMSO-only control)” value is given as 67.3%.
Turning to `CC1(C)CC[C@]2(C(=O)O)CC[C@]3(C)C(=CC[C@@H]4[C@@]5(C)CC[C@H](O)C(C)(C)[C@@H]5CC[C@]43C)[C@@H]2C1` [Sample 15, Oleanolic acid], in the data set with P19 stem cells, the “% Control (quantity of surviving cells as percentage of DMSO-only control)” value was 22.3% and the “inhibition of P19 cell growth (in words)” value is on record as “less effective”.
Take betulin 3,28,30-tricaffeate: the “Light absorption range (λ, nm)” value in data set [1] is reported as 210-360 nm. Besides, the “ε (molar extinction coefficient)” value in data set [1] (at λmax 220) amounted to 1230; in data set [1] (at λmax 245), 882; in data set [1] (at λmax 305), 1174; in data set [1] (at λmax 325), 1353.
Regarding `C=C(C)[C@@H]1CC[C@]2(CO)CC[C@]3(C)C(CC[C@@H]4[C@@]5(C)CC[C@H](O)C(C)(C)C5CC[C@]43C)C12` (stereo partly drawn) [Sample 17, 3β,28-dihydroxy-lup-20(29)-ene], in the data set with P19 stem cells, the “% Control (quantity of surviving cells as percentage of DMSO-only control)” value is 14.8% and the “inhibition of P19 cell growth (in words)” value is reported as “less effective”.
`C=C(C)[C@@H]1CC[C@]2(C)CC[C@]3(C)[C@H](CC[C@@H]4[C@@]5(C)CC[C@H](O)C(C)(C)[C@@H]5CC[C@]43C)[C@@H]12` [Sample 16, Lupeol]: in the data set with P19 stem cells, the “% Control (quantity of surviving cells as percentage of DMSO-only control)” value came to 58.9% and the “inhibition of P19 cell growth (in words)” value is on record as “less effective”.
On to `O=C(O)CCCCCCCCCCCCCCCCCCCCCO` [Sample 12, 22-hydroxydocosanoic acid], for which, in the data set with P19 stem cells, the “% Control (quantity of surviving cells as percentage of DMSO-only control)” value is on record as 51.4%.
